Results reported in patent publication US7235548B2, “Compounds and their use as positive AMPA receptor modulators” (NeuroSearch A/S, priority 1998, dated 2007).

Target: ionotropic quisqualate (AMPA) receptors
Assay: In vitro inhibition of 3H-AMPA binding
Details: 5 nM 3H-AMPA, rat cerebral cortex membranes, 30 min at 2° C.; read-out: IC50 (concentration of the test substance which inhibits the specific binding of 3H-AMPA by 50%)
Excerpt: L-glutamate (GLU) is the major excitatory neurotransmitter in the mammalian central nervous system. From electrophysiological- and binding studies, there appear to be at least three subtypes of GLU receptors, tentatively named N-methyl-D-aspartate (NMDA)-, quisqualate- and kainate receptors. GLU receptor subtypes sensitive to quisqualate and kainate as a group are often referred to as non-NMDA receptors. Receptor binding studies using the labelled agonists ^3H-AMPA (α-amino-3-hydroxy-5-methyl-4-isoxazolepropionic acid) (for quisqualate receptors) and ^3H-kainate (for kainate receptors) have shown different antagonist selectivities and regional distribution. AMPA has been known for several years to be a potent and selective agonist at the traditionally named quisqualate receptors. Activation of quisqualate receptors by AMPA is associated with Na^+ influx and K^+ efflux leading to depolarization.
The non-NMDA receptors have recently been reclassified to include the quisqualate activated metabotropic receptor type, linked to the inositol triphosphate and diacylglycerate metabolism. […] Selective activation of the metabotropic type has been claimed for trans-ACPD. Recently, the potent and competitive non-NMDA receptor antagonists CNQX and NBQX have been described, and CNQX have been reported not to block the effect of quisqualate at the metabotropic receptor subtype. ^3H-AMPA is a selective radioligand for labelling the ionotropic quisqualate (AMPA) receptors.
Preparations are performed at 0–4° C. unless otherwise indicated. Cerebral cortex from male Wistar rats (150–200 g) is homogenized for 5–10 sec in 20 ml Tris-HCl (30 mM, pH 7.4) using an Ultra-Turrax homogenizer. The suspension is centrifuged at 27,000×g for 15 min and the pellet is washed three times with buffer (centrifuged at 27,000×g for 10 min). The washed pellet is homogenized in 20 ml of buffer and incubated on a water bath (37° C.) for 30 min to remove endogenous glutamate and then centrifuged for 10 min at 27,000×g. The pellet is then homogenized in buffer and centrifuged at for 10 min at 27,000×g. The final pellet is resuspended in 30 ml buffer and the preparation is frozen and stored at −20° C.
The membrane preparation is thawed and centrifuged at 2° C. for 10 min at 27,000×g for 10 min. The pellet is washed twice with 20 ml 30 mM Tris-HCl containing 2.5 mM CaCl2, pH 7.4 using an Ultra-Turrax homogenizer and centrifuged for 10 min at 27,000×g. The final pellet is resuspended in 30 mM Tris-HCl containing 2.5 mM CaCl2 and 100 mM KSCN, pH 7.4 (100 ml per g of original tissue) and used for binding assays. Aliquots of 0.5 (0.2) ml are added to 25 (20) μl of test solution and 25(20) μl of ^3H-AMPA (5 nM, final concentration), mixed and incubated for 30 min at 2° C. Non-specific binding is determined using L-glutamate (0.6 mM, final concentration). After incubation the 550 μl samples are added 5 ml of ice-cold buffer and poured directly onto Whatman GF/C glass fibre filters under suction and immediately washed with 5 ml of ice-cold buffer. The 240 μl samples are filtered over glass fibre filter using a Skatron cell harvrester. The filters are washed with 3 ml ice-cold buffer. The amount of radioactivity on the filters is determined by conventional liquid scintillation counting. Specific binding is total binding minus non-specific binding.
The test value will be given as the IC50 (the concentration (μM) of the test substance which inhibits the specific binding of ^3H-AMPA by 50%)

| IC50 [µM] | Compound |
| --- | --- |
| 3.4 | O=S1(=O)NC(C2CCCCC2)Nc2ccc(S(=O)(=O)N3CC=CCC3)cc21 (stereo not drawn) [Compound 58, 3-Cyclohexyl-7-(1′,2′,3′,6′-tetrahydropiperidino)sulfonyl-1,2,3,4-tetrahydro-1,2,4-benzothiadiazine-1,1-dioxide] |
| 45 | CC(=NO)c1ccc2c(c1)S(=O)(=O)NC(C1CCCCC1)N2 (stereo not drawn) [Compound 14, 3-Cyclohexyl-7-(1-hydroxyiminoethyl)-1,2,3,4-tetrahydro-1,2,4-benzothiadiazine-1,1-dioxide] |
| 22 | CC(=O)c1ccc2c(c1)S(=O)(=O)NC(C1CCCCC1)N2 (stereo not drawn) [Compound 13, 3-Cyclohexyl-7-acetyl-1,2,3,4-tetrahydro-1,2,4-benzothiadiazine-1,1-dioxide] |
| 39 | NC(=O)c1ccc2c(c1)S(=O)(=O)NC(C1CCCCC1)N2 (stereo not drawn) [Compound 15, 3-Cyclohexyl-7-carbamoyl-1,2,3,4-tetrahydro-1,2,4-benzothiadiazine-1,1-dioxide] |
| 4.4 | CCN(CC)S(=O)(=O)c1ccc2c(c1)S(=O)(=O)NC(C1CCCCC1)N2 (stereo not drawn) [Compound 48, 3-Cyclohexyl-7-(N,N-diethylamino)sulfonyl-1,2,3,4-tetrahydro-1,2,4-benzothiadiazine-1,1-dioxide] |

Tested on: AMPA receptors
Assay: AMPA evoked single neuron spike activity in rat hippocampus (iontophoretic application of AMPA), in vivo
Details: 10 mg kg^−1 i.v., rat hippocampus
Excerpt: Evaluation of the in vivo effects of positive AMPA modulators (PAMs) on the AMPA evoked spike activity in rat hippocampus. Hippocampal single neuron spike activity is strongly influenced by excitatory input, and iontophoretic application of AMPA induces spike activity in vivo in a dose-dependent manner ([…] et al. 1998). […] PAMs potentate AMPA receptor activation in vitro, and if this mechanism also operates in vivo, the i.v. injection of an PAM should enhance AMPA evoked spike activity. Thus, the aim of this study was to test the in vivo effect of a group of in vitro active PAMs. This have been done by studying their ability to enhances AMPA evoked spike activity after i.v. administration. Experiments were performed on male Wistar rats (M & B, Denmark) weighing 280-380 g, housed in two per cage with free access to food and water. […] Additional anaesthetic was given i.v. if the rat responded to a pinch of the back foot. The trachea was cannulated and the rats were placed in a stereotaxic frame and ventilated by a rodent ventilator (Ugo Basile, Comerio-Varese, Italy). Core body temperature was maintained at 37.5° C. by a DC heating pad. The left and dorsal part of the parietal bone was removed by craniotomy and the dura was withdrawn exposing the pia mater and underlying brain, covered with 0.9% NaCl. AMPA (Sigma, USA) was dissolved at 10 mM in 0.2 M NaCl. NMDA (Sigma, USA) was dissolved at 100 mM in 100 mM NaCl. Both solutions were adjusted to pH 7.5-8.0 with NaOH. COMPOUND 61 was dissolved in 200 mM CH3SO3^- Na^+ at a contration of 10 mM for iontophoretic application ([…]) and in isotonic glucose (278 mM) for i.v. administration. Cyclothiazide, COMPOUND 63, COMPOUND 56, COMPOUND 115 and COMPOUND 114 were all dissolved at in 5% chremophore solution at a concentration of 5 mg ml^-1. Evoked neuronal spike activity was analyzed on-line by a computer, saving single spikes and time of event. Neuronal spike activity (number of action potentials s^-1) was monitored on a pulse rate histogram together with indicators for AMPA, COMPOUND 61 and vehicle application. Extracellular recordings of single hippocampal neuron spikes were made with five-barrel glass microelectrodes (5B120F-6, World Precision Instruments Inc., Sarasota, Fla., USA) with a tip diameter of 10-12 μm. The individual barrels were filled with 5 M NaCl (recording), 400 mM NaCl (current balancing), 10 mM COMPOUND 61 in 200 mM CH3SO3^- Na^+ (pH 4.7), 200 mM CH3SO3^- Na^+ (pH 4.7, Vehicle), and the last barrel was filled with the AMPA. Experiments were performed on hippocampal neurons (A=5.5-6.5 mm, L=1.5-2.0 mm, H=2.0-3.0 mm, according to Paxinos & Watson, 1986). Neuronal spike activity was evoked by iontophoretic application of AMPA for periods of 10 to 15 s with 1.5 min intervals. Single neuron spike activity was amplified 5000 times with a bandwidth of 0.3 and 3 kHz (CyberAmp 320 with a Al 402 x50 smartprobe, Axon Instruments, California, USA). On-line and off-line analyses were performed by the Spike2 program with a 1401 plus interface (Cambridge Electronic Design Limited, England). The computer program also recorded mean arterial blood pressure and monitored and controlled iontophoretic application. AMPA was ejected into hippocampus in regular cycles of 100-105 s. […] Recording of neuronal spike activity was continued for at least 45 min after intravenous injection. The PAM reactivity was tested by microiontophoretic application of COMPOUND 61 (20 nA, FIG.).

| Compound | AMPA evoked spike activity |
| --- | --- |
| NS(=O)(=O)c1cc2c(cc1Cl)NC(C1CC3C=CC1C3)NS2(=O)=O (stereo not drawn) [cyclothiazide, reference compound] | did not enhance |

Tested on: not given
Assay: not given
Details: not given

| melting point [°C] | Compound |
| --- | --- |
| 76 to 78 | CCC1(C)NC(=O)c2ccccc2O1 (stereo not drawn) [Compound 8, 2-Ethyl-2-methyl-3,4-dihydro-1,3-benzoxazine-4-one] |
| 255 to 257 | COc1cc(C(F)(F)F)ccc1-c1ccc2c(c1)S(=O)(=O)NC(C1CCCCC1)N2 (stereo not drawn) [Compound 22, 3-Cyclohexyl-7-(2′-methoxy-4′-trifluoromethylphenyl)-1,2,3,4-tetrahydro-1,2,4-benzothiadiazine-1,1-dioxide] |
| 157 to 160 | O=C1NC(c2ccccc2)Oc2ccccc21 (stereo not drawn) [Compound 4, 2-Phenyl-3,4-dihydro-1,3-benzoxazine-4-one] |
| 243 to 245 | CN1C(C2CCCCC2)Nc2ccc(S(=O)(=O)N3CCOCC3)cc2S1(=O)=O (stereo not drawn) [Compound 85, 3-Cyclohexyl-2-methyl-7-morpholinosulfonyl-1,2,3,4-tetrahydro-1,2,4-benzothiadiazine-1,1-dioxide] |
| 238 to 246 | O=S1(=O)NC(C2CCCCC2)Nc2ccc(-c3cccc(O)c3)cc21 (stereo not drawn) [Compound 27, 3-Cyclohexyl-7-(3′-hydroxyphenyl)-1,2,3,4-tetrahydro-1,2,4-benzothiadiazine-1,1-dioxide] |
| 254 to 258 | NS(=O)(=O)c1cc(Br)c2c(c1)S(=O)(=O)NC(C1CCCCC1)N2 (stereo not drawn) [Compound 101, 5-Bromo-3-cyclohexyl-7-sulfamoyl-1,2,3,4-tetrahydro-1,2,4-benzothiadiazine-1,1-dioxide] |
| 209 to 211 | O=[N+]([O-])c1ccc2c(c1)S(=O)(=O)NC(C1CCCCC1)N2 (stereo not drawn) [Compound 40, 3-Cyclohexyl-7-nitro-1,2,3,4-tetrahydro-1,2,4-benzothiadiazine-1,1-dioxide] |
| 258 to 260 | O=S1(=O)NC(C2CCCC2)Nc2ccc(S(=O)(=O)N3CCCCC3)cc21 (stereo not drawn) [Compound 55, 3-Cyclopentyl-7-piperidinosulfonyl-1,2,3,4-tetrahydro-1,2,4-benzothiadiazine-1,1-dioxide] |
| 207 to 210 | CN1c2ccc(S(=O)(=O)N3CCOCC3)cc2S(=O)(=O)NC1C1CCCCC1 (stereo not drawn) [Compound 86, 3-Cyclohexyl-4-methyl-7-morpholinosulfonyl-1,2,3,4-tetrahydro-1,2,4-benzothiadiazine-1,1-dioxide] |
| 124 to 126 | CC1NC(=O)c2ccccc2O1 (stereo not drawn) [Compound 3, 2-Methyl-3,4-dihydro-1,3-benzoxazine-4-one] |
| 268 to 270 | O=S1(=O)NC(C2CCCCC2)Nc2ccc3c(c21)OCCO3 (stereo not drawn) [Compound 122, 3-Cyclohexyl-7,8-ethylenedioxy-1,2,3,4-tetrahydro-1,2,4-benzothiadiazine-1,1-dioxide] |
| 245 to 249 | CC(=O)Nc1ccccc1-c1ccc2c(c1)S(=O)(=O)NC(C1CCCCC1)N2 (stereo not drawn) [Compound 19, 3-Cyclohexyl-7-(2′-acetamidophenyl)-1,2,3,4-tetrahydro-1,2,4-benzothiadiazine-1,1-dioxide] |
| 255 to 258 | CS(=O)(=O)Nc1ccc2c(c1)S(=O)(=O)NC(C1CCCCC1)N2 (stereo not drawn) [Compound 39, 3-Cyclohexyl-7-methylsulfonylamino-1,2,3,4-tetrahydro-1,2,4-benzothiadiazine-1,1-dioxide] |
| 290 to 300 | CN(C)S(=O)(=O)c1ccccc1-c1ccc2c(c1)S(=O)(=O)NC(C1CCCCC1)N2 (stereo not drawn) [Compound 24, 3-Cyclohexyl-7-(2′-(N,N-dimethylsulfamoyl)phenyl)-1,2,3,4-tetrahydro-1,2,4-benzothiadiazine-1,1-dioxide] |
| 196 to 200 | O=S1(=O)NC(C2CCCCC2)Nc2cc3c(cc21)OCCO3 (stereo not drawn) [Compound 118, 3-cyclohexyl-6,7-ethylenedioxy-1,2,3,4-tetrahydro-1,2,4-benzothiadiazine-1,1-dioxide] |
